From patent US20080312147A1, “Compositions and Methods for the Regulation of Hair Growth” (NUGENE INC., priority 2007, published 2008)

Test system: 5-α-reductase
Test: interruption of 5-α-reductase activity by copper containing peptides
Format: biochemical
Conditions: stated in words only; said to act by preventing binding of testosterone to the active site; no method or data given

interruption of the activity of 5-α-reductase | Substance
interrupt 5-α-reductase | Cu(II)-His-Val-His
interrupt the activity of 5-α-reductase | Gly-His-Lys-Cu(II)
interrupt 5-α-reductase | His-Ala-His-Cu(II)
